Test results reported in ChEMBL document CHEMBL3390848, “Affinity selection and sequence-activity relationships of HIV-1 membrane fusion inhibitors directed at the drug-resistant variants” (Medchemcomm, 2010).
pEC50: −log10 of the molar value. Residues, ends and D or L forms follow the SMILES beside them.

What was measured:
[1] = tested on: Human immunodeficiency virus 1; test: Antiviral activity against HIV1 NL4-3 harboring gp41 D36G mutant infected in human HeLa cells expressing CD4-LTR-beta-gal assessed as inhibition of viral replication after 48 hrs by MAGI assay; format: functional, organism-based
[2] = tested on: Human immunodeficiency virus 1; test: Binding affinity to HIV1 His-tagged N-terminal heptad repeat of envelope glycoprotein gp41 assessed as recovery of N54-drug complex after 2 hrs by LC-MS analysis; design: concentration or dose not given beside the values
[3] = tested on: Human immunodeficiency virus 1; test: Thermal stability of HIV1 envelope glycoprotein gp41 His-tagged N-terminal heptad repeat N54-drug complex assessed as thermal unfolding transition state by measuring molar ellipticity at 4 to 90 degC by circular dichroic spectra analysis

SMILES	pEC50 [1]	Activity [2]	Tm [3]
CC[C@H](C)[C@H](NC(=O)[C@H](CC(C)C)NC(=O)[C@H](CCC(=O)O)NC(=O)[C@H](CCC(=O)O)NC(=O)[C@@H](NC(=O)[C@H](CC(C)C)NC(=O)[C@H](CO)NC(=O)[C@@H](NC(=O)[C@H](Cc1ccc(O)cc1)NC(C)=O)[C@@H](C)O)[C@@H](C)CC)C(=O)N[C@@H](CCCCN)C(=O)N[C@@H](CCCCN)C(=O)N[C@@H](CO)C(=O)N[C@@H](CCC(=O)O)C(=O)N[C@@H](CCC(=O)O)C(=O)N[C@@H](CC(C)C)C(=O)N[C@@H](CCC(N)=O)C(=O)N[C@@H](CCCCN)C(=O)N[C@@H](CCCCN)C(=O)N[C@@H](CC(N)=O)C(=O)N[C@@H](CCC(=O)O)C(=O)N[C@@H](CCC(=O)O)C(=O)N[C@@H](CCC(=O)O)C(=O)N[C@@H](CC(C)C)C(=O)N[C@@H](CCCCN)C(=O)N[C@@H](CCCCN)C(=O)N[C@@H](CC(C)C)C(=O)N[C@@H](CCC(=O)O)C(=O)N[C@@H](CCC(=O)O)C(=O)N[C@@H](Cc1c[nH]c2ccccc12)C(=O)N[C@@H](C)C(=O)N[C@@H](CCCCN)C(=O)N[C@@H](CCCCN)C(=O)N[C@@H](Cc1c[nH]c2ccccc12)C(=O)N[C@@H](CC(N)=O)C(=O)N[C@@H](Cc1c[nH]c2ccccc12)C(=O)N[C@@H](Cc1ccccc1)C(N)=O (Ac-YTSLIEELIKKSEELQKKNEEELKKLEEWAKKWNWF-NH2)	9.30	10.4%	77.4 °C
CC[C@H](C)[C@H](NC(=O)[C@H](CC(C)C)NC(=O)[C@H](CCC(=O)O)NC(=O)[C@H](CCC(=O)O)NC(=O)[C@@H](NC(=O)[C@H](CC(C)C)NC(=O)[C@H](CO)NC(=O)[C@@H](NC(=O)[C@H](Cc1ccc(O)cc1)NC(C)=O)[C@@H](C)O)[C@@H](C)CC)C(=O)N[C@@H](CCCCN)C(=O)N[C@@H](CCCCN)C(=O)N[C@@H](CO)C(=O)N[C@@H](CCC(=O)O)C(=O)N[C@@H](CCC(=O)O)C(=O)N[C@@H](CCSC)C(=O)N[C@@H](CCC(N)=O)C(=O)N[C@@H](CCCCN)C(=O)N[C@@H](CCCCN)C(=O)N[C@@H](CC(N)=O)C(=O)N[C@@H](CCC(=O)O)C(=O)N[C@@H](CCC(=O)O)C(=O)N[C@@H](CCC(=O)O)C(=O)N[C@@H](CC(C)C)C(=O)N[C@@H](CCCCN)C(=O)N[C@@H](CCCCN)C(=O)N[C@@H](CC(C)C)C(=O)N[C@@H](CCC(=O)O)C(=O)N[C@@H](CCC(=O)O)C(=O)N[C@@H](Cc1c[nH]c2ccccc12)C(=O)N[C@@H](C)C(=O)N[C@@H](CCCCN)C(=O)N[C@@H](CCCCN)C(=O)N[C@@H](Cc1c[nH]c2ccccc12)C(=O)N[C@@H](CC(N)=O)C(=O)N[C@@H](Cc1c[nH]c2ccccc12)C(=O)N[C@@H](Cc1ccccc1)C(N)=O (Ac-YTSLIEELIKKSEEMQKKNEEELKKLEEWAKKWNWF-NH2)	9.05	9.2%	74.6 °C
CC[C@H](C)[C@H](NC(=O)[C@H](CC(C)C)NC(=O)[C@H](CCC(=O)O)NC(=O)[C@H](CCC(=O)O)NC(=O)[C@@H](NC(=O)[C@H](CC(C)C)NC(=O)[C@H](CO)NC(=O)[C@@H](NC(=O)[C@H](Cc1ccc(O)cc1)NC(C)=O)[C@@H](C)O)[C@@H](C)CC)C(=O)N[C@@H](CCCCN)C(=O)N[C@@H](CCCCN)C(=O)N[C@@H](CO)C(=O)N[C@@H](CCC(=O)O)C(=O)N[C@@H](CCC(=O)O)C(=O)N[C@@H](CC(N)=O)C(=O)N[C@@H](CCC(N)=O)C(=O)N[C@@H](CCCCN)C(=O)N[C@@H](CCCCN)C(=O)N[C@@H](CC(N)=O)C(=O)N[C@@H](CCC(=O)O)C(=O)N[C@@H](CCC(=O)O)C(=O)N[C@@H](CCC(=O)O)C(=O)N[C@@H](CC(C)C)C(=O)N[C@@H](CCCCN)C(=O)N[C@@H](CCCCN)C(=O)N[C@@H](CC(C)C)C(=O)N[C@@H](CCC(=O)O)C(=O)N[C@@H](CCC(=O)O)C(=O)N[C@@H](Cc1c[nH]c2ccccc12)C(=O)N[C@@H](C)C(=O)N[C@@H](CCCCN)C(=O)N[C@@H](CCCCN)C(=O)N[C@@H](Cc1c[nH]c2ccccc12)C(=O)N[C@@H](CC(N)=O)C(=O)N[C@@H](Cc1c[nH]c2ccccc12)C(=O)N[C@@H](Cc1ccccc1)C(N)=O (Ac-YTSLIEELIKKSEENQKKNEEELKKLEEWAKKWNWF-NH2)	8.44	4.4%	69 °C
CC[C@H](C)[C@H](NC(=O)[C@H](CC(C)C)NC(=O)[C@H](CCC(=O)O)NC(=O)[C@H](CCC(=O)O)NC(=O)[C@@H](NC(=O)[C@H](CC(C)C)NC(=O)[C@H](CO)NC(=O)[C@@H](NC(=O)[C@H](Cc1ccc(O)cc1)NC(C)=O)[C@@H](C)O)[C@@H](C)CC)C(=O)N[C@@H](CCCCN)C(=O)N[C@@H](CCCCN)C(=O)N[C@@H](CO)C(=O)N[C@@H](CCC(=O)O)C(=O)N[C@@H](CCC(=O)O)C(=O)N1CCC[C@H]1C(=O)N[C@@H](CCC(N)=O)C(=O)N[C@@H](CCCCN)C(=O)N[C@@H](CCCCN)C(=O)N[C@@H](CC(N)=O)C(=O)N[C@@H](CCC(=O)O)C(=O)N[C@@H](CCC(=O)O)C(=O)N[C@@H](CCC(=O)O)C(=O)N[C@@H](CC(C)C)C(=O)N[C@@H](CCCCN)C(=O)N[C@@H](CCCCN)C(=O)N[C@@H](CC(C)C)C(=O)N[C@@H](CCC(=O)O)C(=O)N[C@@H](CCC(=O)O)C(=O)N[C@@H](Cc1c[nH]c2ccccc12)C(=O)N[C@@H](C)C(=O)N[C@@H](CCCCN)C(=O)N[C@@H](CCCCN)C(=O)N[C@@H](Cc1c[nH]c2ccccc12)C(=O)N[C@@H](CC(N)=O)C(=O)N[C@@H](Cc1c[nH]c2ccccc12)C(=O)N[C@@H](Cc1ccccc1)C(N)=O (Ac-YTSLIEELIKKSEEPQKKNEEELKKLEEWAKKWNWF-NH2)	< 6.00	0.3%	52 °C
CC[C@H](C)[C@H](NC(=O)[C@H](CC(C)C)NC(=O)[C@H](CCC(=O)O)NC(=O)[C@H](CCC(=O)O)NC(=O)[C@@H](NC(=O)[C@H](CC(C)C)NC(=O)[C@H](CO)NC(=O)[C@@H](NC(=O)[C@H](Cc1ccc(O)cc1)NC(C)=O)[C@@H](C)O)[C@@H](C)CC)C(=O)N[C@@H](CCCCN)C(=O)N[C@@H](CCCCN)C(=O)N[C@@H](CO)C(=O)N[C@@H](CCC(=O)O)C(=O)N[C@@H](CCC(=O)O)C(=O)N[C@@H](CCCNC(=N)N)C(=O)N[C@@H](CCC(N)=O)C(=O)N[C@@H](CCCCN)C(=O)N[C@@H](CCCCN)C(=O)N[C@@H](CC(N)=O)C(=O)N[C@@H](CCC(=O)O)C(=O)N[C@@H](CCC(=O)O)C(=O)N[C@@H](CCC(=O)O)C(=O)N[C@@H](CC(C)C)C(=O)N[C@@H](CCCCN)C(=O)N[C@@H](CCCCN)C(=O)N[C@@H](CC(C)C)C(=O)N[C@@H](CCC(=O)O)C(=O)N[C@@H](CCC(=O)O)C(=O)N[C@@H](Cc1c[nH]c2ccccc12)C(=O)N[C@@H](C)C(=O)N[C@@H](CCCCN)C(=O)N[C@@H](CCCCN)C(=O)N[C@@H](Cc1c[nH]c2ccccc12)C(=O)N[C@@H](CC(N)=O)C(=O)N[C@@H](Cc1c[nH]c2ccccc12)C(=O)N[C@@H](Cc1ccccc1)C(N)=O (Ac-YTSLIEELIKKSEERQKKNEEELKKLEEWAKKWNWF-NH2)	8.82	7.2%	68.9 °C
CC[C@H](C)[C@H](NC(=O)[C@H](CC(C)C)NC(=O)[C@H](CCC(=O)O)NC(=O)[C@H](CCC(=O)O)NC(=O)[C@@H](NC(=O)[C@H](CC(C)C)NC(=O)[C@H](CO)NC(=O)[C@@H](NC(=O)[C@H](Cc1ccc(O)cc1)NC(C)=O)[C@@H](C)O)[C@@H](C)CC)C(=O)N[C@@H](CCCCN)C(=O)N[C@@H](CCCCN)C(=O)N[C@@H](CO)C(=O)N[C@@H](CCC(=O)O)C(=O)N[C@@H](CCC(=O)O)C(=O)N[C@@H](CO)C(=O)N[C@@H](CCC(N)=O)C(=O)N[C@@H](CCCCN)C(=O)N[C@@H](CCCCN)C(=O)N[C@@H](CC(N)=O)C(=O)N[C@@H](CCC(=O)O)C(=O)N[C@@H](CCC(=O)O)C(=O)N[C@@H](CCC(=O)O)C(=O)N[C@@H](CC(C)C)C(=O)N[C@@H](CCCCN)C(=O)N[C@@H](CCCCN)C(=O)N[C@@H](CC(C)C)C(=O)N[C@@H](CCC(=O)O)C(=O)N[C@@H](CCC(=O)O)C(=O)N[C@@H](Cc1c[nH]c2ccccc12)C(=O)N[C@@H](C)C(=O)N[C@@H](CCCCN)C(=O)N[C@@H](CCCCN)C(=O)N[C@@H](Cc1c[nH]c2ccccc12)C(=O)N[C@@H](CC(N)=O)C(=O)N[C@@H](Cc1c[nH]c2ccccc12)C(=O)N[C@@H](Cc1ccccc1)C(N)=O (Ac-YTSLIEELIKKSEESQKKNEEELKKLEEWAKKWNWF-NH2)	8.34	3.2%	66.7 °C
CC[C@H](C)[C@H](NC(=O)[C@H](CC(C)C)NC(=O)[C@H](CCC(=O)O)NC(=O)[C@H](CCC(=O)O)NC(=O)[C@@H](NC(=O)[C@H](CC(C)C)NC(=O)[C@H](CO)NC(=O)[C@@H](NC(=O)[C@H](Cc1ccc(O)cc1)NC(C)=O)[C@@H](C)O)[C@@H](C)CC)C(=O)N[C@@H](CCCCN)C(=O)N[C@@H](CCCCN)C(=O)N[C@@H](CO)C(=O)N[C@@H](CCC(=O)O)C(=O)N[C@@H](CCC(=O)O)C(=O)N[C@H](C(=O)N[C@@H](CCC(N)=O)C(=O)N[C@@H](CCCCN)C(=O)N[C@@H](CCCCN)C(=O)N[C@@H](CC(N)=O)C(=O)N[C@@H](CCC(=O)O)C(=O)N[C@@H](CCC(=O)O)C(=O)N[C@@H](CCC(=O)O)C(=O)N[C@@H](CC(C)C)C(=O)N[C@@H](CCCCN)C(=O)N[C@@H](CCCCN)C(=O)N[C@@H](CC(C)C)C(=O)N[C@@H](CCC(=O)O)C(=O)N[C@@H](CCC(=O)O)C(=O)N[C@@H](Cc1c[nH]c2ccccc12)C(=O)N[C@@H](C)C(=O)N[C@@H](CCCCN)C(=O)N[C@@H](CCCCN)C(=O)N[C@@H](Cc1c[nH]c2ccccc12)C(=O)N[C@@H](CC(N)=O)C(=O)N[C@@H](Cc1c[nH]c2ccccc12)C(=O)N[C@@H](Cc1ccccc1)C(N)=O)[C@@H](C)O (Ac-YTSLIEELIKKSEETQKKNEEELKKLEEWAKKWNWF-NH2)	8.68	6.9%	71.6 °C
